Measured values: ChEMBL document CHEMBL1158166, “DNA binding and biological studies of some novel water-soluble polymer-copper(II)-phenanthroline complexes” (2008)

What was measured:
Settings in all cases: read-out: IZ
[1] = test system: Escherichia coli; experiment: Antibacterial activity against Escherichia coli at 1 ug/disc after 24 to 48 hrs
[2] = test system: Pseudomonas aeruginosa; experiment: Antibacterial activity against Pseudomonas aeruginosa at 1 ug/disc after 24 to 48 hrs
[3] = test system: Staphylococcus aureus; experiment: Antibacterial activity against Staphylococcus aureus at 1 ug/disc after 24 to 48 hrs
[4] = test system: Bacillus subtilis; experiment: Antibacterial activity against Bacillus subtilis at 1 ug/disc after 24 to 48 hrs
[5] = test system: Candida albicans; experiment: Antifungal activity against Candida albicans at 10 ug/disc after 24 to 48 hrs; assay type: functional

SMILES	zone of inhibition at 1 µg/disc [1] [mm]	zone of inhibition at 1 µg/disc [2] [mm]	zone of inhibition at 1 µg/disc [3] [mm]	zone of inhibition at 1 µg/disc [4] [mm]	zone of inhibition at 10 µg/disc [5] [mm]
O=C(O)c1cn(C2CC2)c2cc(N3CCNCC3)c(F)cc2c1=O [CIPROFLOXACIN]	16	17	16	17	
Clc1ccccc1C(c1ccccc1)(c1ccccc1)n1ccnc1 [CLOTRIMAZOLE]					12
